Measurements taken from patent US20100267561A1, “HERBICIDAL PYRIDAZINONE DERIVATIVES” (priority 2007, published 2010).

What was measured:
Experiment in all cases: Test B pre-/postemergence plant response
Format in all cases: in vivo
[1] = system: pigweed (Amaranthus retroflexus); settings: for Pigweed plant response rating: 8 g ai/ha
Summary of the method: (§1)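 Preemergence and postemergence (plants 2-18 cm, 1- to 4-leaf stage) applications used test chemicals in a non-phytotoxic solvent with surfactant. Plants were held in a greenhouse 13 to 15 days, then rated visually against controls on a 0-100 scale (0 no effect, 100 complete control).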

[2] = system: common ragweed (Ambrosia elation); settings: for Ragweed plant response rating: 8 g ai/ha
Summary of the method: as §1

[3] = system: Italian ryegrass (Lolium multiflorum); settings: for Ryegrass, Italian plant response rating: 8 g ai/ha
Summary of the method: as §1

[4] = system: surinam grass (Brachiaria decumbens); settings: for Surinam Grass plant response rating: 8 g ai/ha
Summary of the method: as §1

[5] = system: kochia (Kochia scoparia); settings: for Kochia plant response rating: 8 g ai/ha
Summary of the method: as §1

[6] = system: Russian thistle (Salsola iberica); settings: Preemergence
Summary of the method: as §1

[7] = system: soybean (Glycine max); settings: for Soybean plant response rating: 8 g ai/ha
Summary of the method: as §1

[8] = system: downy bromegrass (Bromus tectorum); settings: for Bromegrass, Downy plant response rating: 8 g ai/ha
Summary of the method: as §1

[9] = system: large crabgrass (Digitaria sanguinalis); settings: for Crabgrass, Large plant response rating: 8 g ai/ha
Summary of the method: as §1

[10] = system: catchweed bedstraw (Galium aparine); settings: Preemergence; for Galium plant response rating: 8 g ai/ha
Summary of the method: as §1

[11] = system: common (oilseed) sunflower (Helianthus annuus); settings: Preemergence; for Sunflower plant response rating: 8 g ai/ha
Summary of the method: as §1

[12] = system: cocklebur (Xanthium strumarium); settings: for Cocklebur plant response rating: 8 g ai/ha
Summary of the method: as §1

[13] = system: woolly cupgrass (Eriochloa villosa); settings: for Cupgrass, Woolly plant response rating: 8 g ai/ha
Summary of the method: as §1

[14] = system: goosegrass (Eleusine indica); settings: for Goosegrass plant response rating: 8 g ai/ha
Summary of the method: as §1

[15] = Postemergence, 16 g ai/ha, scale 0 to 100
[16] = Postemergence, 31 g ai/ha, scale 0 to 100, 0 no effect, 100 complete control
[17] = Postemergence, 62 g ai/ha, scale 0 to 100
[18] = Preemergence, 16 g ai/ha, scale 0 to 100 (0 no effect, 100 complete control)
[19] = Preemergence, 31 g ai/ha, 0 to 100 scale, 0 no effect, 100 complete control
[20] = Preemergence, 62 g ai/ha, scale 0 to 100
[21] = 16 g ai/ha, scale 0 to 100 (0 no effect, 100 complete control)
[22] = 31 g ai/ha, 0 to 100 scale, 0 no effect, 100 complete control

CCc1cc(-c2ccc(Cl)c(Cl)c2)nn1-c1c(O)cnn(C)c1=O [Compound 20]
Pigweed plant response rating ([1]; postemergence, 0-100 scale): 0
Plant response rating, Pigweed [1, 15]: 0
Plant response rating, Pigweed [1, 16]: 0
Plant response rating, Pigweed [1, 17]: 0
Plant response rating, Pigweed [1, 18]: 0
Plant response rating, Pigweed [1, 19]: 0
Plant response rating, Pigweed [1, 20]: 0
Pigweed plant response rating ([1]; Preemergence, scale 0 to 100): 0
Ragweed plant response rating ([2]; postemergence, 0-100 scale): 0
Plant response rating, Ragweed [2, 15]: 0
Plant response rating, Ragweed [2, 16]: 0
Plant response rating, Ragweed [2, 17]: 0
Plant response rating, Ragweed [2, 20]: 0
Ragweed plant response rating ([2]; Preemergence, scale 0 to 100): 0
Ryegrass, Italian plant response rating ([3]; postemergence, 0-100 scale): 40
Plant response rating, Ryegrass, Italian [3, 15]: 55
Plant response rating, Ryegrass, Italian [3, 16]: 90
Plant response rating, Ryegrass, Italian [3, 17]: 90
Plant response rating, Ryegrass, Italian [3, 18]: 35
Plant response rating, Ryegrass, Italian [3, 19]: 40
Plant response rating, Ryegrass, Italian [3, 20]: 90
Ryegrass, Italian plant response rating ([3]; Preemergence, scale 0 to 100): 30
Surinam Grass plant response rating ([4]; postemergence, 0-100 scale): 60
Plant response rating, Surinam Grass [4, 15]: 90
Plant response rating, Surinam Grass [4, 16]: 90
Plant response rating, Surinam Grass [4, 17]: 100
Plant response rating, Surinam Grass [4, 18]: 20
Plant response rating, Surinam Grass [4, 19]: 50
Plant response rating, Surinam Grass [4, 20]: 100
Surinam Grass plant response rating ([4]; Preemergence, scale 0 to 100): 0
Kochia plant response rating ([5]; postemergence, 0-100 scale): 0
Plant response rating, Kochia [5, 15]: 0
Plant response rating, Kochia [5, 16]: 0
Plant response rating, Kochia [5, 17]: 0
Plant response rating, Kochia [5, 18]: 0
Plant response rating, Kochia [5, 19]: 0
Plant response rating, Kochia [5, 20]: 0
Plant response rating, Russian Thistle [6, 21]: 0
Plant response rating, Russian Thistle [6, 22]: 0
Plant response rating, Russian Thistle ([6]; 62 g ai/ha, scale 0 to 100): 0
Soybean plant response rating ([7]; postemergence, 0-100 scale): 0
Plant response rating, Soybean [7, 15]: 0
Plant response rating, Soybean [7, 16]: 0
Plant response rating, Soybean [7, 17]: 0
Bromegrass, Downy plant response rating ([8]; postemergence, 0-100 scale): 0
Plant response rating, Bromegrass, Downy [8, 15]: 0
Plant response rating, Bromegrass, Downy [8, 16]: 40
Plant response rating, Bromegrass, Downy [8, 17]: 50
Plant response rating, Bromegrass, Downy [8, 18]: 0
Plant response rating, Bromegrass, Downy [8, 19]: 0
Plant response rating, Bromegrass, Downy [8, 20]: 0
Bromegrass, Downy plant response rating ([8]; Preemergence, scale 0 to 100): 0
Crabgrass, Large plant response rating ([9]; postemergence, 0-100 scale): 5
Plant response rating, Crabgrass, Large [9, 15]: 70
Plant response rating, Crabgrass, Large [9, 16]: 85
Plant response rating, Crabgrass, Large [9, 17]: 90
Plant response rating, Crabgrass, Large [9, 18]: 50
Plant response rating, Crabgrass, Large [9, 19]: 50
Plant response rating, Crabgrass, Large [9, 20]: 60
Crabgrass, Large plant response rating ([9]; Preemergence, scale 0 to 100): 0
Plant response rating, Galium [10, 21]: 0
Plant response rating, Galium [10, 22]: 50
Plant response rating, Galium ([10]; 62 g ai/ha, scale 0 to 100): 100
Galium plant response rating ([10]; scale 0 to 100): 0
Plant response rating, Sunflower [11, 21]: 0
Plant response rating, Sunflower [11, 22]: 30
Plant response rating, Sunflower ([11]; 62 g ai/ha, scale 0 to 100): 40
Sunflower plant response rating ([11]; scale 0 to 100): 0
Cocklebur plant response rating ([12]; postemergence, 0-100 scale): 0
Plant response rating, Cocklebur [12, 15]: 0
Plant response rating, Cocklebur [12, 16]: 0
Plant response rating, Cocklebur [12, 17]: 0
Plant response rating, Cocklebur [12, 18]: 0
Plant response rating, Cocklebur [12, 19]: 0
Plant response rating, Cocklebur [12, 20]: 0
Cocklebur plant response rating ([12]; Preemergence, scale 0 to 100): 0
Cupgrass, Woolly plant response rating ([13]; postemergence, 0-100 scale): 45
Plant response rating, Cupgrass, Woolly [13, 15]: 90
Plant response rating, Cupgrass, Woolly [13, 16]: 90
Plant response rating, Cupgrass, Woolly [13, 17]: 100
Plant response rating, Cupgrass, Woolly [13, 18]: 30
Plant response rating, Cupgrass, Woolly [13, 19]: 50
Plant response rating, Cupgrass, Woolly [13, 20]: 98
Cupgrass, Woolly plant response rating ([13]; Preemergence, scale 0 to 100): 0
Goosegrass plant response rating ([14]; postemergence, 0-100 scale): 5
Plant response rating, Goosegrass [14, 15]: 20
Plant response rating, Goosegrass [14, 16]: 65
Plant response rating, Goosegrass [14, 17]: 80
Plant response rating, Goosegrass [14, 18]: 0
Plant response rating, Goosegrass [14, 20]: 70
Goosegrass plant response rating ([14]; Preemergence, scale 0 to 100): 0

CCc1cc(-c2ccc(C(F)(F)F)cc2)nn1-c1c(OS(C)(=O)=O)cnn(C)c1=O [Compound 19]
Pigweed plant response rating ([1]; postemergence, 0-100 scale): 0
Plant response rating, Pigweed [1, 15]: 0
Plant response rating, Pigweed [1, 16]: 0
Plant response rating, Pigweed [1, 17]: 0
Plant response rating, Pigweed [1, 18]: 0
Plant response rating, Pigweed [1, 19]: 0
Plant response rating, Pigweed [1, 20]: 0
Pigweed plant response rating ([1]; Preemergence, scale 0 to 100): 0
Ragweed plant response rating ([2]; postemergence, 0-100 scale): 0
Plant response rating, Ragweed [2, 15]: 0
Plant response rating, Ragweed [2, 16]: 0
Plant response rating, Ragweed [2, 17]: 0
Plant response rating, Ragweed [2, 18]: 0
Plant response rating, Ragweed [2, 19]: 0
Plant response rating, Ragweed [2, 20]: 0
Ragweed plant response rating ([2]; Preemergence, scale 0 to 100): 0
Ryegrass, Italian plant response rating ([3]; postemergence, 0-100 scale): 80
Plant response rating, Ryegrass, Italian [3, 15]: 98
Plant response rating, Ryegrass, Italian [3, 16]: 100
Plant response rating, Ryegrass, Italian [3, 17]: 100
Plant response rating, Ryegrass, Italian [3, 18]: 90
Plant response rating, Ryegrass, Italian [3, 19]: 100
Plant response rating, Ryegrass, Italian [3, 20]: 100
Ryegrass, Italian plant response rating ([3]; Preemergence, scale 0 to 100): 50
Surinam Grass plant response rating ([4]; postemergence, 0-100 scale): 90
Plant response rating, Surinam Grass [4, 15]: 100
Plant response rating, Surinam Grass [4, 16]: 100
Plant response rating, Surinam Grass [4, 17]: 100
Plant response rating, Surinam Grass [4, 18]: 80
Plant response rating, Surinam Grass [4, 19]: 98
Plant response rating, Surinam Grass [4, 20]: 100
Surinam Grass plant response rating ([4]; Preemergence, scale 0 to 100): 80
Kochia plant response rating ([5]; postemergence, 0-100 scale): 0
Plant response rating, Kochia [5, 15]: 0
Plant response rating, Kochia [5, 16]: 0
Plant response rating, Kochia [5, 17]: 0
Plant response rating, Kochia [5, 18]: 0
Plant response rating, Kochia [5, 20]: 0
Kochia plant response rating ([5]; Preemergence, scale 0 to 100): 0
Plant response rating, Russian Thistle [6, 21]: 0
Plant response rating, Russian Thistle [6, 22]: 0
Russian Thistle plant response rating ([6]; 8 g ai/ha, scale 0 to 100): 0
Soybean plant response rating ([7]; postemergence, 0-100 scale): 0
Plant response rating, Soybean [7, 15]: 0
Plant response rating, Soybean [7, 16]: 0
Plant response rating, Soybean [7, 17]: 0
Plant response rating, Soybean [7, 20]: 0
Soybean plant response rating ([7]; Preemergence, scale 0 to 100): 0
Bromegrass, Downy plant response rating ([8]; postemergence, 0-100 scale): 10
Plant response rating, Bromegrass, Downy [8, 15]: 75
Plant response rating, Bromegrass, Downy [8, 16]: 75
Plant response rating, Bromegrass, Downy [8, 17]: 90
Plant response rating, Bromegrass, Downy [8, 18]: 0
Plant response rating, Bromegrass, Downy [8, 19]: 30
Plant response rating, Bromegrass, Downy [8, 20]: 60
Bromegrass, Downy plant response rating ([8]; Preemergence, scale 0 to 100): 0
Crabgrass, Large plant response rating ([9]; postemergence, 0-100 scale): 80
Plant response rating, Crabgrass, Large [9, 15]: 85
Plant response rating, Crabgrass, Large [9, 16]: 95
Plant response rating, Crabgrass, Large [9, 17]: 100
Plant response rating, Crabgrass, Large [9, 18]: 100
Plant response rating, Crabgrass, Large [9, 19]: 100
Plant response rating, Crabgrass, Large [9, 20]: 100
Crabgrass, Large plant response rating ([9]; Preemergence, scale 0 to 100): 50
Plant response rating, Galium [10, 22]: 0
Plant response rating, Galium ([10]; 62 g ai/ha, scale 0 to 100): 0
Galium plant response rating ([10]; scale 0 to 100): 0
Plant response rating, Sunflower [11, 21]: 0
Plant response rating, Sunflower [11, 22]: 0
Plant response rating, Sunflower ([11]; 62 g ai/ha, scale 0 to 100): 0
Sunflower plant response rating ([11]; scale 0 to 100): 0
Cocklebur plant response rating ([12]; postemergence, 0-100 scale): 0
Plant response rating, Cocklebur [12, 15]: 0
Plant response rating, Cocklebur [12, 16]: 0
Plant response rating, Cocklebur [12, 17]: 0
Plant response rating, Cocklebur [12, 18]: 0
Plant response rating, Cocklebur [12, 19]: 0
Plant response rating, Cocklebur [12, 20]: 0
Cocklebur plant response rating ([12]; Preemergence, scale 0 to 100): 0
Cupgrass, Woolly plant response rating ([13]; postemergence, 0-100 scale): 90
Plant response rating, Cupgrass, Woolly [13, 15]: 90
Plant response rating, Cupgrass, Woolly [13, 16]: 100
Plant response rating, Cupgrass, Woolly [13, 17]: 100
Plant response rating, Cupgrass, Woolly [13, 18]: 85
Plant response rating, Cupgrass, Woolly [13, 19]: 98
Plant response rating, Cupgrass, Woolly [13, 20]: 100
Cupgrass, Woolly plant response rating ([13]; Preemergence, scale 0 to 100): 50
Goosegrass plant response rating ([14]; postemergence, 0-100 scale): 50
Plant response rating, Goosegrass [14, 15]: 80
Plant response rating, Goosegrass [14, 16]: 80
Plant response rating, Goosegrass [14, 17]: 90
Plant response rating, Goosegrass [14, 18]: 75
Plant response rating, Goosegrass [14, 19]: 100
Plant response rating, Goosegrass [14, 20]: 100
Goosegrass plant response rating ([14]; Preemergence, scale 0 to 100): 0
